From ChEMBL document CHEMBL4665869, “New thiazolopyrimidine as anticancer agents: Synthesis, biological evaluation, DNA binding, molecular modeling and ADMET study” (Bioorg Med Chem Lett, 2020)

What was measured:
A549 = assay: Growth inhibition of human A549 cells at 10 uM relative to control; type: functional; details: read-out: GI
DU-145 = assay: Growth inhibition of human DU-145 cells at 10 uM relative to control; type: functional; details: read-out: GI
DNA = assay: Displacement of methyl green from DNA (unknown origin) assessed as DNA intercalation after 24 hrs by colorimetric assay; type: nucleic-acid assay
CAKI-1 = assay: Growth inhibition of human CAKI-1 cells at 10 uM relative to control; type: functional; details: read-out: GI
SK-OV-3 = assay: Growth inhibition of human SK-OV-3 cells at 10 uM relative to control; type: functional; details: read-out: GI
SW-620 = assay: Growth inhibition of human SW-620 cells at 10 uM relative to control; type: functional; details: read-out: GI
ACHN = assay: Growth inhibition of human ACHN cells at 10 uM relative to control; type: functional; details: read-out: GI
MDA-MB-468 = assay: Growth inhibition of human MDA-MB-468 cells at 10 uM relative to control; type: functional; details: read-out: GI
UACC-257 = assay: Growth inhibition of human UACC-257 cells at 10 uM relative to control; type: functional; details: read-out: GI
MDA-MB-231 = assay: Growth inhibition of human MDA-MB-231 cells at 10 uM relative to control; type: functional; details: read-out: GI
HOP-62 = assay: Growth inhibition of human HOP-62 cells at 10 uM relative to control; type: functional; details: read-out: GI
NCI-H23 = assay: Growth inhibition of human NCI-H23 cells at 10 uM relative to control; type: functional; details: read-out: GI
MDA-MB-435 = assay: Growth inhibition of human MDA-MB-435 cells at 10 uM relative to control; type: functional; details: read-out: GI
RXF 393 = assay: Growth inhibition of human RXF 393 cells at 10 uM relative to control; type: functional; details: read-out: GI
NCI-H322M = assay: Growth inhibition of human NCI-H322M cells at 10 uM relative to control; type: functional; details: read-out: GI
SN12C = assay: Growth inhibition of human SN12C cells at 10 uM relative to control; type: functional; details: read-out: GI
A498 = assay: Growth inhibition of human A498 cells at 10 uM relative to control; type: functional; details: read-out: GI
SK-MEL-2 = assay: Growth inhibition of human SK-MEL-2 cells at 10 uM relative to control; type: functional; details: read-out: GI
MOLT-4 = assay: Growth inhibition of human MOLT-4 cells at 10 uM relative to control; type: functional; details: read-out: GI
SR = assay: Growth inhibition of human SR cells at 10 uM relative to control; type: functional; details: read-out: GI
SK-MEL-5 = assay: Growth inhibition of human SK-MEL-5 cells at 10 uM relative to control; type: functional; details: read-out: GI
HCT-116 = assay: Growth inhibition of human HCT-116 cells at 10 uM relative to control; type: functional; details: read-out: GI
OVCAR-8 = assay: Growth inhibition of human OVCAR-8 cells at 10 uM relative to control; type: functional; details: read-out: GI
HT-29 = assay: Growth inhibition of human HT-29 cells at 10 uM relative to control; type: functional; details: read-out: GI
NCI-H460 = assay: Growth inhibition of human NCI-H460 cells at 10 uM relative to control; type: functional; details: read-out: GI
COLO 205 = assay: Growth inhibition of human COLO 205 cells at 10 uM relative to control; type: functional; details: read-out: GI
HCC 2998 = assay: Growth inhibition of human HCC 2998 cells at 10 uM relative to control; type: functional; details: read-out: GI
HCT-15 = assay: Growth inhibition of human HCT-15 cells at 10 uM relative to control; type: functional; details: read-out: GI
PC-3 = assay: Growth inhibition of human PC-3 cells at 10 uM relative to control; type: functional; details: read-out: GI
SNB-19 = assay: Growth inhibition of human SNB-19 cells at 10 uM relative to control; type: functional; details: read-out: GI
IGROV-1 = assay: Growth inhibition of human IGROV-1 cells at 10 uM relative to control; type: functional; details: read-out: GI
SK-MEL-28 = assay: Growth inhibition of human SK-MEL-28 cells at 10 uM relative to control; type: functional; details: read-out: GI
BT-549 = assay: Growth inhibition of human BT-549 cells at 10 uM relative to control; type: functional; details: read-out: GI
LOX IMVI = assay: Growth inhibition of human LOX IMVI cells at 10 uM relative to control; type: functional; details: read-out: GI
Malme-3M = assay: Growth inhibition of human Malme-3M cells at 10 uM relative to control; type: functional; details: read-out: GI
SF-268 = assay: Growth inhibition of human SF-268 cells at 10 uM relative to control; type: functional; details: read-out: GI
NCI/ADR-RES = assay: Growth inhibition of human NCI/ADR-RES cells at 10 uM relative to control; type: functional; details: read-out: GI
UACC-62 = assay: Growth inhibition of human UACC-62 cells at 10 uM relative to control; type: functional; details: read-out: GI
NCI-H226 = assay: Growth inhibition of human NCI-H226 cells at 10 uM relative to control; type: functional; details: read-out: GI
U-251 = assay: Growth inhibition of human U-251 cells at 10 uM relative to control; type: functional; details: read-out: GI
MCF7 = assay: Growth inhibition of human MCF7 cells at 10 uM relative to control; type: functional; details: read-out: GI
786-0 = assay: Growth inhibition of human 786-0 cells at 10 uM relative to control; type: functional; details: read-out: GI
T47D = assay: Growth inhibition of human T47D cells at 10 uM relative to control; type: functional; details: read-out: GI
OVCAR-5 = assay: Growth inhibition of human OVCAR-5 cells at 10 uM relative to control; type: functional; details: read-out: GI
SF-539 = assay: Growth inhibition of human SF-539 cells at 10 uM relative to control; type: functional; details: read-out: GI
SF-295 = assay: Growth inhibition of human SF-295 cells at 10 uM relative to control; type: functional; details: read-out: GI
OVCAR-4 = assay: Growth inhibition of human OVCAR-4 cells at 10 uM relative to control; type: functional; details: read-out: GI
K562 = assay: Growth inhibition of human K562 cells at 10 uM relative to control; type: functional; details: read-out: GI
CCRF-CEM = assay: Growth inhibition of human CCRF-CEM cells at 10 uM relative to control; type: functional; details: read-out: GI
NCI-H522 = assay: Growth inhibition of human NCI-H522 cells at 10 uM relative to control; type: functional; details: read-out: GI
M14 = assay: Growth inhibition of human M14 cells at 10 uM relative to control; type: functional; details: read-out: GI
HL-60(TB) = assay: Growth inhibition of human HL-60(TB) cells at 10 uM relative to control; type: functional; details: read-out: GI
HOP-92 = assay: Growth inhibition of human HOP-92 cells at 10 uM relative to control; type: functional; details: read-out: GI
KM12 = assay: Growth inhibition of human KM12 cells at 10 uM relative to control; type: functional; details: read-out: GI
RPMI-8226 = assay: Growth inhibition of human RPMI-8226 cells at 10 uM relative to control; type: functional; details: read-out: GI
TK-10 = assay: Growth inhibition of human TK-10 cells at 10 uM relative to control; type: functional; details: read-out: GI
SNB-75 = assay: Growth inhibition of human SNB-75 cells at 10 uM relative to control; type: functional; details: read-out: GI
UO-31 = assay: Growth inhibition of human UO-31 cells at 10 uM relative to control; type: functional; details: read-out: GI
Hs-578T = assay: Growth inhibition of human Hs-578T cells at 10 uM relative to control; type: functional; details: read-out: GI

COc1ccc(/C=C/C2=CC(c3ccc(OC)cc3)N3C=CSC3=N2)cc1 (centres undefined)
10.1%: inhibition of growth at 10 µM (HOP-92)
< 10%: inhibition of growth at 10 µM (A549) | inhibition of growth at 10 µM (DU-145) | inhibition of growth at 10 µM (CAKI-1) | inhibition of growth at 10 µM (SK-OV-3) | inhibition of growth at 10 µM (SW-620) | inhibition of growth at 10 µM (ACHN) | inhibition of growth at 10 µM (MDA-MB-468) | inhibition of growth at 10 µM (MDA-MB-231) | inhibition of growth at 10 µM (HOP-62) | inhibition of growth at 10 µM (NCI-H23) | inhibition of growth at 10 µM (MDA-MB-435) | inhibition of growth at 10 µM (RXF 393) | inhibition of growth at 10 µM (NCI-H322M) | inhibition of growth at 10 µM (SN12C) | inhibition of growth at 10 µM (A498) | inhibition of growth at 10 µM (SK-MEL-2) | inhibition of growth at 10 µM (MOLT-4) | inhibition of growth at 10 µM (SR) | inhibition of growth at 10 µM (SK-MEL-5) | inhibition of growth at 10 µM (HCT-116) | inhibition of growth at 10 µM (OVCAR-8) | inhibition of growth at 10 µM (HT-29) | inhibition of growth at 10 µM (NCI-H460) | inhibition of growth at 10 µM (COLO 205) | inhibition of growth at 10 µM (HCC 2998) | inhibition of growth at 10 µM (HCT-15) | inhibition of growth at 10 µM (SNB-19) | inhibition of growth at 10 µM (IGROV-1) | inhibition of growth at 10 µM (SK-MEL-28) | inhibition of growth at 10 µM (BT-549) | inhibition of growth at 10 µM (LOX IMVI) | inhibition of growth at 10 µM (Malme-3M) | inhibition of growth at 10 µM (SF-268) | inhibition of growth at 10 µM (NCI/ADR-RES) | inhibition of growth at 10 µM (UACC-62) | inhibition of growth at 10 µM (NCI-H226) | inhibition of growth at 10 µM (U-251) | inhibition of growth at 10 µM (MCF7) | inhibition of growth at 10 µM (786-0) | inhibition of growth at 10 µM (T47D) | inhibition of growth at 10 µM (OVCAR-5) | inhibition of growth at 10 µM (SF-539) | inhibition of growth at 10 µM (SF-295) | inhibition of growth at 10 µM (OVCAR-4) | inhibition of growth at 10 µM (K562) | inhibition of growth at 10 µM (CCRF-CEM) | inhibition of growth at 10 µM (NCI-H522) | inhibition of growth at 10 µM (M14) | inhibition of growth at 10 µM (HL-60(TB)) | inhibition of growth at 10 µM (KM12) | inhibition of growth at 10 µM (RPMI-8226) | inhibition of growth at 10 µM (TK-10) | inhibition of growth at 10 µM (SNB-75) | inhibition of growth at 10 µM (UO-31) | inhibition of growth at 10 µM (Hs-578T)
47.75 µg/mL: IC50 (DNA)
11.9%: inhibition of growth at 10 µM (UACC-257)
17.2%: inhibition of growth at 10 µM (PC-3)
